{"source": "patent US11766469B2", "about": "“Q-peptide hydrogel promotes immune modulation and macrophage differentiation” (Quthero, Inc., priority 2019, dated 2023)", "molecules": {"B1": {"name": "recombinant human TGF-β3: recombinant human TGF-β3 used to treat wounds in a clinical trial (protein, UniProt P10600 301-412, looked up)", "Transforming growth factor …": "ALDTNYCFRNLEENCCVRPLYIDFRQDLGWKWVHEPKGYYANFCSGPCPYLRSADTTHSTVLGLYNTLNPEASASPCCVPQDLEPLTILYYVGRTPKVEQLSNMVVKSCKCS"}}, "key": {"[1]": {"test_system": "bone marrow derived macrophages (BMDMs)", "test": "BMDM culture on hydrogel films: cell attachment, total cell count, viability (Zombie Violet)", "assay_type": "cell-based, C57BL/6 mice", "details": "after 24 hours of culture", "protocol": "Murine bone marrow derived macrophages (BMDM) were isolated from 8-12 week-old C57BL/6 mice (Charles River) according to a protocol approved by the University of Toronto Animal Care Committee. The mice were euthanized, and the femur and tibias were removed and placed in complete RPMI 1640+L-glutamine media (Gibco, 10% heat inactivated Fetal Bovine Serum, FBS, 1% Pen/Strep). The bones were separated and sterilized in 70% ethanol for 10 minutes. The heads of the bones were cut off, and the marrow was flushed out with a 23 G needle containing fresh complete RPMI 1640 media. The remaining cell culture media and bone marrow was homogenized by gentle pipetting. The cells were spun down and resuspended in ACK Lysing Buffer (Gibco) for 1 min to lyse remaining red blood cells. The lysing buffer was diluted with PBS, and the cell suspension was re-spun, and counted. […]\nAdherent macrophages were detached by incubating with 0.25% trypsin-EDTA for 10 minutes. […] After 24 hours of culture, cell culture media was collected for ELISA analysis by Eve Technologies (Calgary, AB), and the concentrations of INF-γ, IL-1β, IL-2, IL-4, IL-6, IL-10, IL-12 p′70, GM-CSF, MCP-1, TNF-α, TGF-β31, TGF-β2, and TGF-β3 were measured. […]"}, "[2]": {"test_system": "rat myocardial infarction model", "details": "cited from earlier work"}, "[3]": {"test_system": "bone marrow derived macrophages (BMDMs)", "test": "ELISA of cytokines released by BMDMs into culture media", "assay_type": "cell-based, C57BL/6 mice", "details": "24 hours of culture", "protocol": "Murine bone marrow derived macrophages (BMDM) were isolated from 8-12 week-old C57BL/6 mice (Charles River) according to a protocol approved by the University of Toronto Animal Care Committee. The mice were euthanized, and the femur and tibias were removed and placed in complete RPMI 1640+L-glutamine media (Gibco, 10% heat inactivated Fetal Bovine Serum, FBS, 1% Pen/Strep). The bones were separated and sterilized in 70% ethanol for 10 minutes. The heads of the bones were cut off, and the marrow was flushed out with a 23 G needle containing fresh complete RPMI 1640 media. The remaining cell culture media and bone marrow was homogenized by gentle pipetting. The cells were spun down and resuspended in ACK Lysing Buffer (Gibco) for 1 min to lyse remaining red blood cells. The lysing buffer was diluted with PBS, and the cell suspension was re-spun, and counted. Cells were seeded at 3 million cells/well in non-adherent 6-well culture plates containing 2 mL of complete RPMI 1640 media with 20 ng/mL of Macrophage Colony Stimulating Factor (M-CSF, Miltenyi Biotec). Half (50%) of the media was changed on day 3, and 5. On day 7, adherent cells were used as macrophages for experiments. Macrophage purity, as identified by F4/80+, CD11b+ positive staining, under all culture stimulations is >90%, consistent with previous studies (FIG. 6B).\nAdherent macrophages were detached by incubating with 0.25% trypsin-EDTA for 10 minutes. Cells were polarized in response to the following treatment conditions: blank-included cultivation on tissue culture plastics; soluble Q-Peptide (650 μM) applied to macrophages cultivated on tissue culture plastics; and macrophages cultivated on the following hydrogel films: no peptide collagen-chitosan (empty) film, scrambled Q-Peptide film, and Q-Peptide film. BMDMs were polarized with lipopolysaccharide (LPS; 100 ng/mL) for pro-inflammatory, M(LPS), and IL-4 ([…]) for anti-inflammatory, M(IL-4) positive polarization controls. Cells were seeded directly onto a non-adherent 6-well plate for the blank and soluble Q-Peptide conditions, and onto solvent cast films for the empty film, scrambled Q-Peptide film, and Q-Peptide film at a concentration of 100,000 cells/cm^2. After 24 hours of culture, cell culture media was collected for ELISA analysis by Eve Technologies (Calgary, AB), and the concentrations of INF-γ, IL-1β, IL-2, IL-4, IL-6, IL-10, IL-12 p′70, GM-CSF, MCP-1, TNF-α, TGF-β31, TGF-β2, and TGF-β3 were measured."}, "wounds": {"test_system": "wounds", "details": "wounds treated; cited from earlier work"}, "[4]": {"details": "compared to blank, soluble Q-Peptide and empty film (LPS: vs Q-Peptide film)"}}}
{"molecule": "QHREDGS (SEQ ID NO: 1) with biotin-Ahx N-terminal modification [soluble Q-Peptide]", "values": [{"measurement": "final cell count (cells in solution and attached)", "setting": "[1]", "result": "did not affect the final cell count"}, {"measurement": "cell attachment (number of adhered cells/mm2)", "setting": "[1]; compared with blank culture conditions", "result": "decrease in cell attachment"}, {"measurement": "effectiveness in myocardial infarction model", "setting": "[2]", "result": "effective"}, {"measurement": "BMDM cytokine release / cytokine concentration (overall)", "setting": "[3]", "result": "only had an effect on BMDM cytokine release when immobilized to a hydrogel"}]}
{"molecule": "lipopolysaccharide [LPS]", "values": [{"measurement": "concentration of IL-6", "setting": "[3]; [4]", "result": "an order of magnitude greater"}, {"measurement": "concentration of MCP-1", "setting": "[3]; [4]", "result": "an order of magnitude greater"}, {"measurement": "concentration of IL-10", "setting": "[3]; relative to the other culture conditions (LPS: vs Q-Peptide film)", "result": "an order of magnitude greater"}]}
{"molecule": "B1", "values": [{"measurement": "primary and secondary outcomes of a Phase III trial", "setting": "wounds", "result": "failed to reach primary and secondary outcomes"}]}
